Laboratory results published in US8354451B2, “Treatment of microbial infections with compounds that inhibit 4-hydroxyphenylpyruvate dioxygenase” (The UWM Research Foundation, Inc., priority 2009, dated 2013).

Legend:
Format in all cases: cell-based, Burkholderia cenocepacia
[1] = system: B. cenocepacia C5424 and MH1J; test: Bacterial viability, LIVE/DEAD fluorescence microscopy; settings: 10 μM and 100 μM NTBC, 24 h culture
Procedure: Viability was tested by the LIVE/DEAD® method (Molecular probes, Invitrogen). 1 mL of bacterial culture was collected at 24 h, washed twice with phosphate buffered saline (PBS), and the pellet resuspended in 1 mL of Dubecco's modified Eagle's medium (DMEM) supplemented with 10% fetal bovine serum (FBS). Bacteria were incubated for 15 min at RT in the dark, 5 mL of the culture was used for fluorescence microscopy. Images were acquired using a QIMAGING® (Burnaby, British Columbia, Canada) cooled charge coupled-device camera on an Axioscope 2 (Carl Zeiss, Thornwood, N.Y.) microscope with an X100/1.3 numerical aperture Plan-Neofluor objective and a 50-W mercury arc lamp. Images were digitally processed using the Northern Eclipse version 6.0 imaging analysis software (Empix Imaging, Mississauga, Ontario, Canada).
(§1) B. cenocepacia C5424 and MH1J were cultured in the presence of 10 μM and 100 μM NTBC and assayed for growth rates using the BIOSCREEN® system (FIG. 2). Bacterial viability was examined under similar treatment conditions by fluorescence microscopy using the LIVE/DEAD® kit (Molecular Probes, Invitrogen).

[2] = system: B. cenocepacia MH1J; test: Pigment (pyomelanin) production, supernatant OD597; settings: 24 h culture
Procedure: FIG. 1. NTBC decreases pigment production in B. cenocepacia. B. cenocepacia strains C5424 and MH1J were cultured in presence or absence of NTBC in flasks during 24 h. An aliquot of this culture was used to take the picture in A. To quantify pigment production, 1 ml of culture was centrifuged at 14,000 rpm by 5 min to pellet bacteria. The pigment in the supernatant was quantified at an OD597 nm. The graphic (B) was generated with the results of two independent experiments. Values represent the mean±SD of two independent experiments. ***, p<0.001, Mock (untreated) versus treated with 10 and 100 μM of NTBC.
To test the ability of NTBC 2-[2-nitro-4-(trifluoromethyl)benzoyl]-1,3-cyclohexanedione (NTBC) to decrease pigment production by Burkholderia cenocepacia strains, two strains with the ability to produce pigment were used: (i) the previously described B. cenocepacia C5424, and (ii) B. cenocepacia MH1J, strain with susceptibility to gentamicin.
Bacteria were grown in 10 ml of Luria-Bertani (LB) broth at 37° C. with shaking, using 250 mL-flasks. B. cenocepacia C5424 produced significant pigment at 24 h of culture and MH1J required 48 h to form high pigment production. To quantify the pigment produced by both strains a 1 mL culture was taken at 24 hrs of incubation and the bacteria were pelleted by centrifugation at 14,000 r.p.m. for 5 min. […]

[3] = system: B. cenocepacia C5424 and MH1J; test: Growth rate, BIOSCREEN growth curve analysis; settings: 10 μM and 100 μM NTBC, OD600 over 24 h
Procedure: FIG. 2. Effect of NTBC on growth and viability of B. cenocepacia. B. cenocepacia C5424 (upper graph) and MH1J (lower graph) were cultured in 300 ml of LB by triplicates. Cultures were started at an OD600 of 0.1 and OD600 readings were taken every 30 min over 24 h using the BIOSCREEN® system.
To assess growth rate, overnight cultures were inoculated into fresh medium with a starting optical density at 600 (OD600) of 0.1. Growth rates were determined in 100-well microtiter plates by use of a BIOSCREEN® C automated microbiology growth curve analysis system (MTX Lab Systems, Inc., Vienna, Va.) under high-amplitude shaking conditions.
as §1

O=C1CCCC(=O)C1C(=O)c1ccc(C(F)(F)F)cc1[N+](=O)[O-] [NTBC, 2-(2-nitro-4-trifluoromethylbenzoyl)-1,3-cyclohexanedione]
effect on viability [1]: does not affect growth rate or viability | pigment production relative to untreated MH1J ([2]; 10 μM NTBC): 31.53±3.08% | pigment production relative to untreated MH1J ([2]; 100 μM NTBC): 36.41±1.80% | effect on growth rate [3]: does not affect growth rate
